This is an account of results in US7022696B2, “Piperazino-derivatives and their use as PDE4 inhibitor” (Altana Pharma AG, priority 2001, dated 2006).

SMILES strings stand for the structures. Where a name gives a salt, the structure may show the parent alone.

Turning to `COc1ccc(C2=NN(c3ccc(C(=O)N4CCN(CC(=O)N(C)C)CC4)cc3)C(=O)[C@@H]3CC=CC[C@H]23)cc1OC.Cl`, the melting point (in general, the temperature of the solid-liquid transition) was 93 to 94 °C.

`CCOC(=O)N1CCN(C(=O)c2ccc(N3N=C(c4ccc(OCC)c(OCC)c4)[C@H]4CC=CC[C@H]4C3=O)cc2)CC1` [Compound 7, 4-(1-{4-[(4aS,8aR)-4-(3,4-Diethoxyphenyl)-1-oxo-4a,5,8,8a-tetrahydro-1H-phthalazin-2-yl]-phenyl}-methanoyl)-piperazine-1-carboxylic acid ethyl ester] came in with a melting point of 146 to 147 °C.

Turning to `COc1ccc(C2=NN(c3ccc(C(=O)N4CCN(CCN5CCOCC5)CC4)cc3)C(=O)[C@@H]3CC=CC[C@H]23)c2c1OC(C)(C)C2.Cl.Cl` [Compound 20, (4aS,8aR)-4-(7-Methoxy-2,2-dimethyl-2,3-dihydro-benzofuran-4-yl)-2-(4-{1-[4-(2-morpholin-4-yl-ethyl)-piperazin-1-yl]-methanoyl}-phenyl)-4a,5,8,8a-tetrahydro-2H-phthalazin-1-one dihydrochloride], the melting point was 271 °C (dec.).

On to `COc1ccc(C2=NN(Cc3ccc(C(=O)N4CCN(CCCN(C)C)CC4)cc3)C(=O)[C@H]3CC=CC[C@@H]23)c2c1OC(C)(C)C2.Cl.Cl` (relative stereo), for which the melting point was in the range of 247 to 249 °C.

Turning to `COc1ccc(C2=NN(c3ccc(C(=O)N4CCN(c5nc(-c6ccccc6C)ns5)CC4)cc3)C(=O)[C@@H]3CC=CC[C@H]23)cc1OC.Cl` [Compound 19, (4aS,8aR)-4-(3,4-Dimethoxyphenyl)-2-(4-{1-[4-(3-o-tolyl-1,2,4-thiadiazol-5-yl)-piperazin-1-yl]-methanoyl}-phenyl)-4a,5,8,8a-tetrahydro-2H-phthalazin-1-one hydrochloride], the melting point lay within 115 to 118 °C.

`COc1ccc(C2=NN(c3ccc(C(=O)N4CCN(c5ccccc5)CC4)cc3)C(=O)[C@@H]3CC=CC[C@H]23)c2c1OC(C)(C)C2` [Compound 10, (4aS,8aR)-4-(7-Methoxy-2,2-dimethyl-2,3-dihydro-benzofuran-4-yl)-2-{4-[1-(4-phenyl-piperazin-1-yl)-methanoyl]-phenyl}-4a,5,8,8a-tetrahydro-2H-phthalazin-1-one] yielded a melting point of 185 to 186 °C.

The molecule `CCOc1ccc(C2=NN(c3ccc(C(=O)N4CCN(c5cccc6[nH]ccc56)CC4)cc3)C(=O)[C@@H]3CC=CC[C@H]23)cc1OCC.Cl` [Compound 21, (4aS,8aR)-4-(3,4-Diethoxy-phenyl)-2-(4-{1-[4-(1H-indol-4-yl)-piperazin-1-yl]-methanoyl}-phenyl)-4a,5,8,8a-tetrahydro-2H-phthalazin-1-one hydrochloride] yielded a melting point of 142 to 145 °C.

Consider `CCOc1ccc(C2=NN(c3ccc(C(=O)N4CCN(c5nc(-c6ccccc6)ns5)CC4)cc3)C(=O)[C@@H]3CC=CC[C@H]23)cc1OCC` [Compound 17, (4aS,8aR)-4-(3,4-Diethoxyphenyl)-2-(4-{1-[4-(3-phenyl-1,2,4-thiadiazol-5-yl)-piperazin-1-yl]-methanoyl}-phenyl)-4a,5,8,8a-tetrahydro-2H-phthalazin-1-one], for which the melting point lay within 168 to 169 °C.

In the case of `CCOc1ccc(C2=NN(c3ccc(S(=O)(=O)N4CCN(c5ccccn5)CC4)cc3)C(=O)[C@H]3CC=CC[C@@H]23)cc1OCC` (relative stereo) [Compound 6, (cis)-4-(3,4-Diethoxyphenyl)-2-[4-(4-pyridin-2-yl-piperazine-1-sulfonyl)-phenyl]-4a,5,8,8a-tetrahydro-2H-phthalazin-1-one], the melting point is 181 to 182 °C.

On to `COc1ccc(C2=NN(c3ccc(C(=O)N4CCN(CC(=O)N5CCCC5)CC4)cc3)C(=O)[C@@H]3CC=CC[C@H]23)cc1OC.Cl`, for which the melting point was 160 to 161 °C.

On to `CCOc1ccc(C2=NN(c3ccc(C(=O)N4CCN(C5CCN(C)CC5)CC4)cc3)C(=O)[C@@H]3CC=CC[C@H]23)cc1OCC.Cl.Cl` [Compound 28, (4aS,8aR)-4-(3,4-Diethoxy-phenyl)-2-(4-{1-[4-(1-methyl-piperidin-4-yl)-piperazin-1-yl]-methanoyl}-phenyl)-4a,5,8,8a-tetrahydro-2H-phthalazin-1-one dihydrochloride], for which the melting point is 275 °C (dec.).

In turn, `CCOc1ccc(C2=NN(c3ccc(C(=O)N4CCN(c5ccc([N+](=O)[O-])cn5)CC4)cc3)C(=O)C3CC=CCC23)cc1OCC` (as salt: hydrochloride) [Compound 18, (4aS,8aR)-4-(3,4-Diethoxyohenyl)-2-(4-{1-[4-(5-nitro-pyridin-2-yl)-piperazin-1-yl]-methanoyl}-phenyl)-4a,5,8,8a-tetrahydro-2H-phthalazin-1-one hydrochloride] registered a melting point of 117 to 118 °C.

With `COc1ccc(C2=NN(c3ccc(C(=O)N4CCN(CCCN(C)C)CC4)cc3)C(=O)[C@@H]3CC=CC[C@H]23)c2c1OC(C)(C)C2.Cl.Cl` [Compound 11, (4aS,8aR)-2-(4-{1-[4-(3-Dimethylamino-propyl)-piperazin-1-yl]-methanoyl}-phenyl)-4-(7-methoxy-2,2-dimethyl-2,3-dihydro-benzofuran-4-yl)-4a,5,8,8a-tetrahydro-2H-phthalazin-1-one dihydrochloride], the melting point was 262 °C (dec.).

The molecule `COc1ccc(C2=NN(Cc3ccc(C(=O)N4CCN(CCN5CCOCC5)CC4)cc3)C(=O)[C@H]3CC=CC[C@@H]23)c2c1OC(C)(C)C2.Cl.Cl` (relative stereo) showed a melting point of 210 to 211 °C.

In the case of `COc1ccc(C2=NN(c3ccc(C(=O)N4CCN(CCCN(C)C)CC4)cc3)C(=O)[C@@H]3CC=CC[C@H]23)cc1OC.Cl.Cl` [Compound 13, (4aS,8aR)-4-(3,4-Dimethoxyphenyl)-2-(4-{1-[4-(3-dimethylamino-propyl)-piperazin-1-yl]-methanoyl}-phenyl)-4a,5,8,8a-tetrahydro-2H-phthalazin-1-one dihydrochloride], the melting point lay in the range of 223 to 226 °C.

`CCOc1ccc(C2=NN(c3ccc(C(=O)N4CCN(c5ccccn5)CC4)cc3)C(=O)[C@@H]3CC=CC[C@H]23)cc1OCC` [Compound 2, (4aS,8aR)-4-(3,4-Diethoxyphenyl)-2-{4-[1-(4-pyridin-2-yl-piperazin-1-yl)-methanoyl]-phenyl}-4a,5,8,8a-tetrahydro-2H-phthalazin-1-one] showed a melting point of 183 to 184 °C.

Molecule `CCOc1ccc(C2=NN(c3ccc(C(=O)N4CCN(C=O)CC4)cc3)C(=O)[C@@H]3CC=CC[C@H]23)cc1OCC` [Compound 5, 4-(1-{4-[(4aS,8aR)-4-(3,4-Diethoxyphenyl)-1-oxo-4a,5,8,8a-tetrahydro-1H-phthalazin-2-yl]-phenyl}-methanoyl)-piperazine-1-carbaldehyde] yielded a melting point of 143 to 144 °C.

`COc1ccc(C2=NN(Cc3ccc(C(=O)N4CCN(c5cnccn5)CC4)cc3)C(=O)[C@H]3CC=CC[C@@H]23)c2c1OC(C)(C)C2.Cl.Cl` (relative stereo) came in with a melting point of 124 to 126 °C.

For the molecule `CCOc1ccc(C2=NN(c3ccc(C(=O)N4CCN(CCN5CCOCC5)CC4)cc3)C(=O)[C@@H]3CC=CC[C@H]23)cc1OCC.Cl.Cl`, the melting point is 255 °C (dec.).

For the molecule `CCOc1ccc(C2=NN(c3ccc(C(=O)N4CCN(Cc5ccncc5)CC4)cc3)C(=O)[C@@H]3CC=CC[C@H]23)cc1OCC.Cl.Cl` [Compound 25, (4aS,8aR)-4-(3,4-Diethoxy-phenyl)-2-{4-[1-(4-pyridin-4-ylmethyl-piperazin-1-yl)-methanoyl]-phenyl}-4a,5,8,8a-tetrahydro-2H-phthalazin-1-one dihydrochloride], the melting point lay in the range of 83 to 85 °C.

For the molecule `CCOc1ccc(C2=NN(c3ccc(C(=O)N4CCN(C(=O)c5ccco5)CC4)cc3)C(=O)[C@@H]3CC=CC[C@H]23)cc1OCC` [Compound 4, (4aS,8aR)-4-(3,4-Diethoxyphenyl)-2-(4-{1-[4-(1-furan-2-yl-methanoyl)-piperazin-1-yl]-methanoyl}-phenyl)-4a,5,8,8a-tetrahydro-2H-phthalazin-1-one], the melting point lay within 114 to 115 °C.

In the case of `CCOc1ccc(C2=NN(c3ccc(C(=O)N4CCN(CCCN(C)C)CC4)cc3)C(=O)[C@@H]3CC=CC[C@H]23)cc1OCC.Cl.Cl`, the melting point was 248 °C (dec.).

The molecule `CCOc1ccc(C2=NN(c3ccc(C(=O)N4CCN(c5ccccc5)CC4)cc3)C(=O)[C@@H]3CC=CC[C@H]23)cc1OCC.Cl` had a melting point of 146 to 147 °C.

`COc1ccc(C2=NN(c3ccc(C(=O)N4CCN(C(=O)c5ccco5)CC4)cc3)C(=O)C3CC=CCC23)c2c1OC(C)(C)C2` [Compound 9, (4aS,8aR)-2-(4-{1-[4-(1-furan-2-yl-methanoyl)-piperazin-1-yl]-methanoyl}-phenyl)-4-(7-methoxy-2,2-dimethyl-2,3-dihydrobenzofuran-4-yl)-4a,5,8,8a-tetrahydro-2-phthalazin-1-one] gave a melting point of 138 to 140 °C.

As to `CCOc1ccc(C2=NN(c3ccc(C(=O)N4CCN(c5cc(C)nc6ccccc56)CC4)cc3)C(=O)[C@@H]3CC=CC[C@H]23)cc1OCC.Cl` [Compound 26, (4aS,8aR)-4-(3,4-Diethoxy-phenyl)-2-(4-{1-[4-(2-methyl-quinolin-4-yl)-piperazin-1-yl]-methanoyl}-phenyl)-4a,5,8,8a-tetrahydro-2H-phthalazin-1-one hydrochloride], the melting point was 203 to 206 °C (dec.).

`CCOc1ccc(C2=NN(c3ccc(C(=O)N4CCN(c5ccncc5)CC4)cc3)C(=O)[C@@H]3CC=CC[C@H]23)cc1OCC.Cl` [Compound 27, (4aS,8aR)-4-(3,4-Diethoxy-phenyl)-2-{4-[1-(4-pyridin-4-yl-piperazin-1-yl)-methanoyl]-phenyl}-4a,5,8,8a-tetrahydro-2H-phthalazin-1-one hydrochloride] showed a melting point of 164 to 167 °C.

For the molecule `CCOc1ccc(C2=NN(c3ccc(C(=O)N4CCN(c5ccc(C(F)(F)F)cn5)CC4)cc3)C(=O)[C@@H]3CC=CC[C@H]23)cc1OCC` [Compound 29, (4aS,8aR)-4-(3,4-Diethoxy-phenyl)-2-(4-{1-[4-(5-trifluoromethyl-pyridin-2-yl)-piperazin-1-yl]-methanoyl}-phenyl)-4a,5,8,8a-tetrahydro-2H-phthalazin-1-one], the melting point lay within 121 to 123 °C.
